Laboratory results as given in patent US20070128217A1 (priority 2003, published 2007).

How the values were obtained:
[1] = test system: rabbit serum obtained by immunizing a rabbit with the SARS-CoV strain Frankfurt 1; format: binding; parameters: Binding of a rabbit serum to linear peptides / Binding of a rabbit serum to looped peptides / Rabbit serum linear peptides / Rabbit serum looped peptides / Binding of a rabbit serum to linear peptides of protein N of SARS-CoV Urbani (Rabbit serum linear peptides) / Binding of a rabbit serum to looped/cyclic peptides of protein N of SARS-CoV Urbani (Rabbit serum looped peptides): unit not given here
[2] = test system: antibodies in sera from SARS patients (sera 1a, 1b, 2, 6, 37, 62, London, SARS-yellow, SARS-green); format: binding, human; parameters: Binding of serum 6 to linear peptides of protein X1 of SARS-CoV Urbani / Binding of serum 37 to linear peptides of protein X1 of SARS-CoV Urbani / Binding of serum 6 to looped/cyclic peptide (PEPSCAN-ELISA) / Binding of serum 37 to looped/cyclic peptide (PEPSCAN-ELISA) / Binding of serum 37 to looped/cyclic peptides of protein X1 of SARS-CoV Urbani / Binding of serum 6 to linear peptides of protein X2 / Binding of serum 37 to linear peptides of protein X2 / Binding of serum 37 to looped/cyclic peptides of protein X2 of SARS-CoV Urbani / Binding of serum 6 to linear peptides of protein M of SARS-CoV Urbani / Binding of serum 37 to linear peptides of protein M of SARS-CoV Urbani / Binding of serum 6 to looped/cyclic peptides of protein M of SARS-CoV Urbani / Binding of serum 37 to looped/cyclic peptides of protein M of SARS-CoV Urbani / Binding of serum 6 to linear peptides of protein X3 of SARS-CoV Urbani / Binding of serum 37 to linear peptides of protein X3 of SARS-CoV Urbani / Binding of serum 37 to looped/cyclic peptides of protein X3 of SARS-CoV Urbani / Binding of serum 6 to linear peptides of protein X4 of SARS-CoV Urbani / Binding of serum 37 to linear peptides of protein X4 of SARS-CoV Urbani / Binding of serum 37 to looped/cyclic peptides of protein X4 of SARS-CoV Urbani / Binding of serum 6 to linear peptides of protein X5 of SARS-CoV Urbani / Binding of serum 37 to linear peptides of protein X5 of SARS-CoV Urbani / Binding of serum 37 to looped/cyclic peptides of protein X5 of SARS-CoV Urbani / Binding of serum 6 to linear peptides of protein N of SARS-CoV Urbani / Binding of serum 37 to linear peptides of protein N of SARS-CoV Urbani / Binding of serum 6 to linear peptide (PEPSCAN-ELISA) / Binding of serum 1a to looped/cyclic peptides of protein N of SARS-CoV Urbani / Binding of serum 1b to looped/cyclic peptides of protein N of SARS-CoV Urbani / Binding of serum 2 to looped/cyclic peptides of protein N of SARS-CoV Urbani / Binding of serum 6 to looped/cyclic peptides of protein N of SARS-CoV Urbani / Binding of serum 37 to looped/cyclic peptides of protein N of SARS-CoV Urbani / Binding of serum 62 to looped/cyclic peptides of protein N of SARS-CoV Urbani / Binding of serum London to looped/cyclic peptides of protein N of SARS-CoV Urbani / Binding of serum SARS-green to looped/cyclic peptides of protein N of SARS-CoV Urbani: unit not given here
[3] = test system: control sera (pooled serum of ten healthy LUMC hospital workers; commercial negative donor pooled serum from the Dutch bloodbank); format: binding, human; parameters: Binding of Control serum LUMC to linear peptides / Binding of Control serum Blood-bank to linear peptides / Binding of Control serum LUMC to looped peptides / Binding of Control Serum Blood-Bank to Looped peptides / Binding of Control serum LUMC to linear peptides of the protein M of SARS-CoV Urbani / Binding of Control serum Blood-bank to linear peptides of the protein M of SARS-CoV Urbani / Binding of Control serum LUMC to looped peptides of the protein M of SARS-CoV Urbani / Binding of Control Serum Blood-Bank to Looped peptides of the protein M of SARS-CoV Urbani: unit not given here
[4] = test system: recombinant human anti-SARS-CoV antibody 03-018; format: binding; parameters: Binding of antibody 03-018 to linear peptides of the N protein of SARS-CoV Urbani / Binding of antibody 03-018 to looped/cyclic peptides of the N protein of SARS-CoV Urbani: unit not given here

| Sequence | Binding of a rabbit serum to linear peptides of protein N of SARS-CoV Urbani (Rabbit serum linear peptides) [1] | Binding of a rabbit serum to looped/cyclic peptides of protein N of SARS-CoV Urbani (Rabbit serum looped peptides) [1] | Binding of serum 1a to linear peptides of protein N of SARS-CoV Urbani [2] | Binding of serum 1a to looped/cyclic peptides of protein N of SARS-CoV Urbani [2] | Binding of serum 1b to linear peptides of protein N of SARS-CoV Urbani [2] | Binding of serum 1b to looped/cyclic peptides of protein N of SARS-CoV Urbani [2] | Binding of serum 2 to linear peptides of protein N of SARS-CoV Urbani [2] | Binding of serum 2 to looped/cyclic peptides of protein N of SARS-CoV Urbani [2] | Binding of serum 6 to looped/cyclic peptides of protein N of SARS-CoV Urbani [2] | Binding of serum 37 to looped/cyclic peptides of protein N of SARS-CoV Urbani [2] | Binding of serum 62 to looped/cyclic peptides of protein N of SARS-CoV Urbani [2] | Binding of serum London to looped/cyclic peptides of protein N of SARS-CoV Urbani [2] | Binding of serum SARS-green to looped/cyclic peptides of protein N of SARS-CoV Urbani [2] | Binding of serum SARS-yellow to looped/cyclic peptides of protein N of SARS-CoV Urbani [2] | Binding of Control Serum Blood-Bank to Looped peptides [3] | Binding of Control serum Blood-bank to linear peptides [3] | Binding of Control serum LUMC to linear peptides [3] | Binding of Control serum LUMC to looped peptides [3] | Binding of antibody 03-018 to linear peptides of the N protein of SARS-CoV Urbani [4] | Binding of antibody 03-018 to looped/cyclic peptides of the N protein of SARS-CoV Urbani [4] | further results |
| --- | --- | --- | --- | --- | --- | --- | --- | --- | --- | --- | --- | --- | --- | --- | --- | --- | --- | --- | --- | --- | --- |
| PEASLPYGANKEGIV | 0.1 | 0.2 | 0.3 | 0.3 | 0.1 | 0.2 | 0.2 | 0.4 | 0.2 | 0.4 | 0.3 | 0.3 | 0.3 | 0.2 | 0.5 | 0.9 | 0.7 | 0.6 | 0.1 | 0.2 | Binding of serum 6 to linear peptides of protein N of SARS-CoV Urbani [2]: 0.2; Binding of serum 37 to linear peptides of protein N of SARS-CoV Urbani [2]: 0.7; Binding of serum 62 to linear peptides of protein N of SARS-CoV Urbani [2]: 0.7; Binding of serum London to linear peptides of protein N of SARS-CoV Urbani [2]: 0.5; Binding of serum SARS-green to linear peptides of protein N of SARS-CoV Urbani [2]: 0.3; Binding of serum SARS-yellow to linear peptides of protein N of SARS-CoV Urbani [2]: 0.6 |
| PEQTQGNFGDQDLIR | 0.1 | 0.5 | – | 0.4 | – | 0.4 | – | 0.4 | 0.2 | 0.6 | 0.4 | 0.4 | 0.4 | 0.6 | 0.5 | 0.8 | 0.9 | 0.6 | 0.1 | 0.2 | Recognition of the peptide by sera of SARS-CoV infected individuals, and form (linear, looped/cyclic) in which it is recognized [2]: recognized in linear form |
| PKDHIGTRNPNNNAA | 0.2 | 0.2 | 0.3 | 0.4 | 0.1 | 0.3 | 0.3 | 0.3 | 0.3 | 0.5 | 0.3 | 0.3 | 0.2 | 0.2 | 0.5 | 0.8 | 0.8 | 0.6 | 0.1 | 0.2 | Binding of serum 6 to linear peptides of protein N of SARS-CoV Urbani [2]: 0.2; Binding of serum 37 to linear peptides of protein N of SARS-CoV Urbani [2]: 0.8; Binding of serum 62 to linear peptides of protein N of SARS-CoV Urbani [2]: 0.9; Binding of serum London to linear peptides of protein N of SARS-CoV Urbani [2]: 0.5; Binding of serum SARS-green to linear peptides of protein N of SARS-CoV Urbani [2]: 0.4; Binding of serum SARS-yellow to linear peptides of protein N of SARS-CoV Urbani [2]: 0.8 |
| PNNTASWFTALTQHG | 0.1 | 0.4 | 0.2 | 0.4 | 0.1 | 0.2 | 0.2 | 0.3 | 0.2 | 0.6 | 0.5 | 0.3 | 0.7 | 0.6 | 0.7 | 0.5 | 0.7 | 0.7 | 0.1 | 0.3 | Binding of serum 6 to linear peptides of protein N of SARS-CoV Urbani [2]: 0.2; Binding of serum 37 to linear peptides of protein N of SARS-CoV Urbani [2]: 0.7; Binding of serum 62 to linear peptides of protein N of SARS-CoV Urbani [2]: 0.7; Binding of serum London to linear peptides of protein N of SARS-CoV Urbani [2]: 0.5; Binding of serum SARS-green to linear peptides of protein N of SARS-CoV Urbani [2]: 0.3; Binding of serum SARS-yellow to linear peptides of protein N of SARS-CoV Urbani [2]: 0.4 |
